Data: US9926281B2 (priority 2014, dated 2018)

Assays:
human MMP14 = human MMP14 (Homo sapiens (Human), UniProt P50281); conditions: read-out: hMMP-14 potency IC50
human MMP13 = human MMP13 (Homo sapiens (Human), UniProt P45452); conditions: read-out: hMMP-13 potency IC50
Method: Human MMP13 is preactivated by incubated the enzyme in the same buffer complemented with 1 mM freshly prepared p-Aminophenylmercuric acetate (AMPA) for 1 hour at 37° C.

human ADAMTS-5 = human ADAMTS-5 (Homo sapiens (Human), UniProt Q9UNA0); conditions: read-out: hADAMTS-5 potency IC50
Method: Finally, the fluorescence is read on the Envision (Perkin Elmer) after an incubation of 90 min at 37° C.

human TACE = human TACE (Homo sapiens (Human), UniProt P78536); conditions: read-out: TACE potency IC50
Sequence of human TACE (P78536 whole entry, looked up, change not shown): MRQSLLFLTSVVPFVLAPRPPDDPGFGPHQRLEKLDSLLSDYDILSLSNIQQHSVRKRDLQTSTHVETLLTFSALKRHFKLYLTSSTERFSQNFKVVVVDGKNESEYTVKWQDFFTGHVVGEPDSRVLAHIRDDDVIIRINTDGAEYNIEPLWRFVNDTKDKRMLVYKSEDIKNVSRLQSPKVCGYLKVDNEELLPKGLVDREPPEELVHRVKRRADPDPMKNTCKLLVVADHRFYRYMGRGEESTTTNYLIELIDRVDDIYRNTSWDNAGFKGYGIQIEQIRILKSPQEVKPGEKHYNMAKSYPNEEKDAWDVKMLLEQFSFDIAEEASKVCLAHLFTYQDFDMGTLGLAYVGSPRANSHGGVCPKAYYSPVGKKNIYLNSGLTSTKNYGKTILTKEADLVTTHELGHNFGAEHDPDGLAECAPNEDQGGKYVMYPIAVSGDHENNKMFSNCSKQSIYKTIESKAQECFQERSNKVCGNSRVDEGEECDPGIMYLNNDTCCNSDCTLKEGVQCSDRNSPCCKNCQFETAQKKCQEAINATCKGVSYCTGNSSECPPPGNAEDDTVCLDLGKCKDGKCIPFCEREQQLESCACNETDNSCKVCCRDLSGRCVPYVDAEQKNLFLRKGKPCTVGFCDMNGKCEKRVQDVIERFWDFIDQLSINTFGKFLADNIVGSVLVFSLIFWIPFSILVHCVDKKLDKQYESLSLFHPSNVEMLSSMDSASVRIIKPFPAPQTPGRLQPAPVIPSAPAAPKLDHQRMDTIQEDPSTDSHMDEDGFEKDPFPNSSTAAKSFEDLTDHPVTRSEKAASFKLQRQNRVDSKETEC

Sequence of human ADAMTS-5 (Q9UNA0 262-930): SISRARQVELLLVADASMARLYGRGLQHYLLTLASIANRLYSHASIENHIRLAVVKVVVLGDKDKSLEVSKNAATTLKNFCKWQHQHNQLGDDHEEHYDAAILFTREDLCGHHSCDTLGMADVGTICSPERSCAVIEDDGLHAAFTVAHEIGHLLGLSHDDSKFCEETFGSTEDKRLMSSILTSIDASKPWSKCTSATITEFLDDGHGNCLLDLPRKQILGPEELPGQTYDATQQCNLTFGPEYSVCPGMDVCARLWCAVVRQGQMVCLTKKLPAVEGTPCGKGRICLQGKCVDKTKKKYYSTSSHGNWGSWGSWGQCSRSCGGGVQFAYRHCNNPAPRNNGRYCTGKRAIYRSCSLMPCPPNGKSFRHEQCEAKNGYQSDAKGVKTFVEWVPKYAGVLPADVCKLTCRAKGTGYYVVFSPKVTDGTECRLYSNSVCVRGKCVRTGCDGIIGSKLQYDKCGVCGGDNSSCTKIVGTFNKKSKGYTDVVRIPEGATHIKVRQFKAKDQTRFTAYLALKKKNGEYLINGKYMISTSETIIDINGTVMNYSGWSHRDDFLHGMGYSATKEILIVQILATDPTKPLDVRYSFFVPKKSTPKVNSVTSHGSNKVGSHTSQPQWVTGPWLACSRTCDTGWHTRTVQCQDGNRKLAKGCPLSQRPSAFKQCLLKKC

Row | Compound | IC50 (human MMP14) | IC50 (human MMP13) | IC50 (human ADAMTS-5) | IC50 (human TACE)
1 | CC(=O)NCC1(CCC(=O)N2CCN(c3cc(Cl)cc(Cl)c3)CC2)NC(=O)NC1=O (stereo not drawn) [Cpd 223, N-[[4-[3-[4-(3,5-dichlorophenyl)piperazin-1-yl]-3-oxo-propyl]-2,5-dioxo-imidazolidin-4-yl]methyl]acetamide] | > 20000 nM | > 20 µM | 70 nM | > 4 µM
2 | COCC1(CC(C)C(=O)N2CCN(c3ccc(F)c(F)c3)[C@@H](C)C2)NC(=O)NC1=O (stereo partly drawn) [compound 226, 5-[3-[(S)-4-(3,4-difluorophenyl)-3-methyl-piperazin-1-yl]-2-methyl-3-oxo-propyl]-5-(methoxymethyl)imidazolidine-2,4-dione] | 978 nM | 3.27 µM | 22 nM | > 4 µM
3 | COCC1(CC(C)C(=O)N2CCN(c3cc(F)ccc3C)[C@@H](C)C2)NC(=O)NC1=O (stereo partly drawn) [compound 228, 5-[3-[(3S)-4-(5-fluoro-2-methyl-phenyl)-3-methyl-piperazin-1-yl]-2-methyl-3-oxo-propyl]-5-(methoxymethyl)imidazolidine-2,4-dione] | > 20000 nM | > 4 µM | 109 nM | > 4 µM
4 | COCC1(CC(C)C(=O)N2CCN(c3cccc(F)c3)[C@@H](C)C2)NC(=O)NC1=O (stereo partly drawn) [compound 229, 5-[3-[(3S)-4-(3-fluorophenyl)-3-methyl-piperazin-1-yl]-2-methyl-3-oxo-propyl]-5-(methoxymethyl)imidazolidine-2,4-dione] | 682 nM | 3.85 µM | 31 nM | > 4 µM
5 | COCC1(CC(C)C(=O)N2CCN(c3cc(F)ccc3C)CC2)NC(=O)NC1=O (stereo not drawn) [compound 230, 5-[3-[4-(5-fluoro-2-methyl-phenyl)piperazin-1-yl]-2-methyl-3-oxo-propyl]-5-(methoxymethyl)imidazolidine-2,4-dione] | > 20000 nM | > 20 µM | 24 nM | 0.207 µM
6 | COCC1(CC(C)C(=O)N2CCN(c3cccc(Cl)c3C)[C@@H](C)C2)NC(=O)NC1=O (stereo partly drawn) [compound 232, 5-[3-[(3S)-4-(3-chloro-2-methyl-phenyl)-3-methyl-piperazin-1-yl]-2-methyl-3-oxo-propyl]-5-(methoxymethyl)imidazolidine-2,4-dione] | > 20000 nM | > 20 µM | 47 nM | > 4 µM
7 | C[C@@H](CC1(C2CC2)NC(=O)NC1=O)C(=O)N1CCN(c2cccc(-c3cn[nH]c3)c2)[C@@H](C)C1 (stereo partly drawn) [compound 339, 5-cyclopropyl-5-[(2S)-2-methyl-3-[(3S)-3-methyl-4-[3-(1H-pyrazol-4-yl)phenyl]piperazin-1-yl]-3-oxo-propyl]imidazolidine-2,4-dione] | 1230 nM |  | 33 nM | > 4 µM
8 | Cc1cncc(N2CCN(C(=O)C(C)CC3(C4CC4)NC(=O)NC3=O)C[C@@H]2C)c1 (stereo partly drawn) [compound 342, 5-cyclopropyl-5-[2-methyl-3-[(3S)-3-methyl-4-(5-methyl-3-pyridyl)piperazin-1-yl]-3-oxo-propyl]imidazolidine-2,4-dione] | 2600 nM |  | 39 nM | > 4 µM
9 | C[C@H]1CN(C(=O)CCC2(c3ccccn3)NC(=O)NC2=O)CCN1c1cc(F)cc(Cl)c1 (stereo partly drawn) [compound 346, 5-[3-[(3S)-4-(3-chloro-5-fluoro-phenyl)-3-methyl-piperazin-1-yl]-3-oxo-propyl]-5-(2-pyridyl)imidazolidine-2,4-dione] | > 4000 nM |  | 37 nM | > 4 µM
10 | C[C@H]1CN(C(=O)CCC2(c3cnccn3)NC(=O)NC2=O)CCN1c1cccc(F)c1 (stereo partly drawn) [compound 350, 5-[3-[(3S)-4-(3-fluorophenyl)-3-methyl-piperazin-1-yl]-3-oxo-propyl]-5-pyrazin-2-yl-imidazolidine-2,4-dione] | 1310 nM |  | 62 nM | > 20 µM
11 | CC(CC1(C2CC2)NC(=O)NC1=O)C(=O)N1CCN(c2cccnc2)[C@@H](C)C1 (stereo partly drawn) [compound 351, 5-cyclopropyl-5-[2-methyl-3-[(3S)-3-methyl-4-(3-pyridyl)piperazin-1-yl]-3-oxo-propyl]imidazolidine-2,4-dione] | 3840 nM |  | 35 nM | > 20 µM
12 | C[C@H]1CN(C(=O)CC[C@@]2(C3CC3)NC(=O)NC2=O)CCN1c1cc(F)cc(-c2cn[nH]c2)c1 [compound 357, (5S)-5-cyclopropyl-5-[3-[(3S)-4-[3-fluoro-5-(1H-pyrazol-4-yl)phenyl]-3-methyl-piperazin-1-yl]-3-oxo-propyl]imidazolidine-2,4-dione] | > 20000 nM |  | 25 nM | > 4 µM
13 | CCC1(C[C@H](C)C(=O)N2CCN(c3cncc(Cl)c3)[C@@H](C)C2)NC(=O)NC1=O (stereo partly drawn) [compound 359, 5-[(2S)-3-[4-(5-chloro-3-pyridyl)-3-methyl-piperazin-1-yl]-2-methyl-3-oxo-propyl]-5-ethyl-imidazolidine-2,4-dione] | 978 nM |  | 83 nM | > 12 µM
14 | CC(CC1(C)NC(=O)NC1=O)C(=O)N1CCN(c2ccc(F)cc2)[C@@H](C)C1 (stereo partly drawn) [compound 365, 5-[3-[(3S)-4-(4-fluorophenyl)-3-methyl-piperazin-1-yl]-2-methyl-3-oxo-propyl]-5-methyl-imidazolidine-2,4-dione] | > 20000 nM |  | 72 nM | > 9.33 µM
15 | Cc1cc(C2(CCC(=O)N3CCN(c4cc(F)cc(F)c4)[C@@H](C)C3)NC(=O)NC2=O)ccn1 (stereo partly drawn) [compound 367, 5-[3-[(3S)-4-(3,5-difluorophenyl)-3-methyl-piperazin-1-yl]-3-oxo-propyl]-5-(2-methyl-4-pyridyl)imidazolidine-2,4-dione] | > 20000 nM |  | 44 nM | > 4 µM
16 | CC(CC1(C)NC(=O)NC1=O)C(=O)N1CCN(c2cccc(-c3cn[nH]c3)c2)[C@@H](C)C1 (stereo partly drawn) [compound 371] | 682 nM |  | 42 nM | > 3.73 µM
17 | C[C@@H](C[C@@]1(C)NC(=O)NC1=O)C(=O)N1CCN(c2cc(F)cc(-c3cn[nH]c3)c2)[C@@H](C)C1 [compound 375, 5-[3-[(3S)-4-[3-fluoro-5-(1H-pyrazol-4-yl)phenyl]-3-methyl-piperazin-1-yl]-2-methyl-3-oxo-propyl]-5-methyl-imidazolidine-2,4-dione] | > 20000 nM |  | 30 nM | 1.13 µM
18 | C[C@H]1CN(C(=O)CCC2(c3cn(C)cn3)NC(=O)NC2=O)CCN1c1cc(F)cc(Cl)c1 (stereo partly drawn) [compound 389, 5-[3-[(3S)-4-(3-chloro-5-fluoro-phenyl)-3-methyl-piperazin-1-yl]-3-oxo-propyl]-5-(1-methylimidazol-4-yl)imidazolidine-2,4-dione] | > 20000 nM |  | 40 nM | > 4 µM
19 | Cc1nc(C2(CCC(=O)N3CCN(c4cc(F)cc(F)c4)[C@@H](C)C3)NC(=O)NC2=O)c(C)o1 (stereo partly drawn) [compound 396, 5-[3-[(3S)-4-(3,5-difluorophenyl)-3-methyl-piperazin-1-yl]-3-oxo-propyl]-5-(2,5-dimethyloxazol-4-yl)imidazolidine-2,4-dione] | 7 nM |  | 53 nM | > 4 µM
20 | C[C@H]1CN(C(=O)CCC2(c3cnn(C)c3)NC(=O)NC2=O)CCN1c1cc(F)cc(F)c1 (stereo partly drawn) [compound 397, 5-[3-[(3S)-4-(3,5-difluorophenyl)-3-methyl-piperazin-1-yl]-3-oxo-propyl]-5-(1-methylpyrazol-4-yl)imidazolidine-2,4-dione] | 26 nM |  | 37 nM | > 4 µM
